Assays:
OCTN2/slc22a5 = target: T1, OCTN2/slc22a5 (Mus musculus, UniProt Q9Z0E8); assay: [3H]L-carnitine uptake in NSC-34 cells with mOCTN2 siRNA knockdown; format: cell-based
T1 sequence (Q9Z0E8 1-557): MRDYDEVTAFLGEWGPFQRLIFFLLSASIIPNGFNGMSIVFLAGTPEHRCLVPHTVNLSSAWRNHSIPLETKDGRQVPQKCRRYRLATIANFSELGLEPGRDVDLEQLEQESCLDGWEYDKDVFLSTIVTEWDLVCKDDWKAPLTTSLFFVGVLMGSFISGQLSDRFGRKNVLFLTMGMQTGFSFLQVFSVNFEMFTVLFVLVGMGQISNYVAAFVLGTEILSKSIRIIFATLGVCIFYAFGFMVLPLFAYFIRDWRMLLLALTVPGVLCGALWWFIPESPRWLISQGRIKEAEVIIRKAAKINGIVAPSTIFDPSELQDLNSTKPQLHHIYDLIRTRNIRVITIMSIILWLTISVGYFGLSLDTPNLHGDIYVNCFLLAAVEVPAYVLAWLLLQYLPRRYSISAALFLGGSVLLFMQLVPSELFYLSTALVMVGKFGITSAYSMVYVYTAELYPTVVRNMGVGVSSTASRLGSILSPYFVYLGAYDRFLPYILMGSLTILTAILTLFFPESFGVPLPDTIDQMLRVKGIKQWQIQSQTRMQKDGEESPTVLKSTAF

OCTN1/slc22a4 = target: T2, OCTN1/slc22a4 (Mus musculus, UniProt Q9Z306); assay: [3H]L-carnitine uptake in NSC-34 cells with mOCTN1 siRNA knockdown; format: cell-based
T2 sequence (Q9Z306 1-553): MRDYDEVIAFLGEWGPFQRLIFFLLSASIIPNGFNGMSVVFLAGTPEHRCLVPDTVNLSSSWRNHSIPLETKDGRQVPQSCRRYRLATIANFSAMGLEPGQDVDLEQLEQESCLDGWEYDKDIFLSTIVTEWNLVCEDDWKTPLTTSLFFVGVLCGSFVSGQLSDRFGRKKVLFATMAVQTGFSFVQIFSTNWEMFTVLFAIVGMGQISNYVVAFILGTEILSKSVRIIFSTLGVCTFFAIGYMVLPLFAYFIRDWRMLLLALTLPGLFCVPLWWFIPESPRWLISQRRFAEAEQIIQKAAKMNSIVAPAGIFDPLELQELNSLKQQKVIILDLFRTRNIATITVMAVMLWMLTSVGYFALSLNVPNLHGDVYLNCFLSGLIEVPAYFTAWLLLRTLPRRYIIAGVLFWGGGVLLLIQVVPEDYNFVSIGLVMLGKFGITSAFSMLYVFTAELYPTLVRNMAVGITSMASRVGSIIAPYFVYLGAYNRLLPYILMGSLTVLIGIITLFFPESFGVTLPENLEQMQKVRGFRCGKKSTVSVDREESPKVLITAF

`C[N+](C)(C)C[C@H](O)CC(=O)[O-]` [LC, L-carnitine] was tested, and the “[3H]L-carnitine uptake in NSC-34 cells with mOCTN2 siRNA knockdown” value (OCTN2/slc22a5) was “mOCTN1 and mOCTN2 siRNA-transfected NSC-34 cell lines demonstrated a significant decrease in the slc22a4 and slc22a5 gene expression level” and the “[3H]L-carnitine uptake in NSC-34 cells with mOCTN1 siRNA knockdown” value (OCTN1/slc22a4) was “OCTN1/slc22a4 and OCTN2/slc22a5 siRNA transfection study revealed both transporters are involved in LC transport in NSC-34 cell lines”.
